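Results reflect a 48-hour exposure of cells in 96-well plates to compound at five concentrations. GI50: concentration for 50% inhibition of growth. Definition used: TGI = concentration required for complete inhibition of growth.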
Tests used:
Experiment in all cases: inhibition of tumour cell growth, NCI panel, 48 h
[1] = tested on: SK-MEL-2 melanoma
[2] = tested on: KM20L2 colon
[3] = tested on: HOP-62 NSCLC
[4] = tested on: SF-295 CNS
[5] = tested on: 786-0 renal
[6] = tested on: NCI-H23 lung
[7] = tested on: A498 renal
[8] = tested on: PC-3 prostate
[9] = tested on: MDA-MB-435
[10] = tested on: DMS 114 small cell lung

Row | SMILES | GI50 [1] [µM] | TGI [1] [µM] | GI50 [2] [µM] | TGI [2] [µM] | GI50 [3] [µM] | TGI [3] [µM] | GI50 [4] [µM] | TGI [4] [µM] | GI50 [5] [µM] | TGI [5] [µM] | GI50 [6] [µM] | TGI [6] [µM] | GI50 [7] [µM] | TGI [7] [µM] | GI50 [8] [µM] | TGI [8] [µM] | GI50 [9] [µM] | TGI [9] [µM] | TGI [10] [µM]
1 | N[C@@H]1CCCC[C@@H]1N.O=C([O-])CN(CP(=O)([O-])[O-])CP(=O)([O-])[O-].[Pt+2] | > 100 | > 100 | > 100 | > 100 | > 100 | > 100 | > 100 | > 100 | > 100 | > 100 | > 100 | > 100 | > 100 | > 100 |  |  |  |  | 
2 | CCCCN(CCCC)C(=O)C(=O)C(C)C(=O)CC (configuration not stated) |  | > 100 |  | > 100 |  | > 100 |  | > 100 |  | > 100 |  | > 100 |  |  |  |  |  |  | 
3 | CC(=O)/C=C/C1=C(c2cccs2)c2ccccc2CC1 | 25.6 | 71.2 |  |  | 33.8 | 88 | 22.5 | 54.5 | 49.4 | > 100 | 34.3 | > 100 | 23.7 | 47.9 | 40.7 | > 100 | 25.8 | 51.3 | 
4 | O=C(O)c1cscc1Cc1cccs1 |  | > 100 |  |  |  | > 100 |  | > 100 |  | > 100 |  | > 100 |  | > 100 |  | > 100 |  | > 100 | 
5 | Cc1nc2cc(Nc3nc(Nc4ccc(F)cc4)nc(N4CCN(C)CC4)n3)ccc2n1Cc1ccccc1 | 1.97 | 3.58 |  |  | 1.85 | 3.65 | 1.82 | 3.6 | 1.54 | 3.32 | 2 | 4.5 | 1.56 | 3.19 | 2.04 | 5.4 | 1.87 | 3.56 | 
6 | CC1CCP(=O)(c2ccccc2)CC1 (configuration not stated) |  | > 100 |  | > 100 |  | > 100 |  | > 100 |  | > 100 |  | > 100 |  |  |  |  |  |  | > 100
7 | CNC(=O)OC1C(O[C@H]2C[C@H]3[C@@H]4CC=C5C[C@@H](O)CC[C@]5(C)[C@H]4CC[C@]3(C)[C@H]2[C@H](C)C(=O)CCC(C)C)OCC(O)C1OC1OCC(O)C(O)C1OC(=O)c1ccc(OC)cc1 (some centres not stated) | 0.00933 | 0.324 |  |  | 0.0225 | 2.85 | < 0.00275 | 0.00628 | 0.00341 | 0.652 | 0.134 | 4.59 | 0.00446 | 0.0205 | 0.01 | 0.447 | 0.0203 | 0.359 | 
8 | CC(=O)[C-](C(C)=O)c1ccccc1.CC(=O)[C-](C(C)=O)c1ccccc1.CC[O-].CC[O-].[Ti+4] | > 100 | > 100 | > 100 | > 100 | > 100 | > 100 | > 100 | > 100 | > 100 | > 100 | > 100 | > 100 |  |  |  |  |  |  | 
9 | COc1ccc2c(c1)cn1c3ccc(O)cc3[nH]c(=O)c21 | 0.215 | 2.08 |  |  | 0.258 | 17.9 | 0.248 | 3.52 | 0.334 | 5.49 | 0.292 | 15.5 | 0.377 | 20.7 | 0.244 | 16.4 | 0.0252 | 0.171 | 
10 | COc1cc(Cl)c2c3c(c(C(=O)c4ccccc4)oc13)CCC2 |  |  |  | > 100 |  | > 100 |  | > 100 |  | > 100 |  | > 100 |  | > 100 |  |  |  |  | > 100
11 | CC(O)(CNS(=O)(=O)c1ccccc1)c1ccccc1 (configuration not stated) |  | > 100 |  |  |  | > 100 |  | > 100 |  | > 100 |  | > 100 |  | > 100 |  | > 100 |  | > 100 | 
12 | O=[N+]([O-])/C=C\c1c[nH]c2ccc(OCc3ccccc3)cc12 |  | 24 |  |  |  | 29.4 |  | 23.8 |  | 4.56 |  | 7.33 |  | 22.6 |  | 21.5 |  | 4.73 | 
13 | COc1ccc(Cl)cc1NC(=O)c1cccc([N+](=O)[O-])c1O |  | 24.8 |  | 89.9 |  | 21.4 |  | 55.3 |  | 58.7 |  | 40.7 |  | 35.4 |  | > 100 |  | > 100 | 
14 | CS(=O)(=O)CCn1c(=O)c(Oc2ccc(F)cc2F)cc2cnc(NC3CCOCC3)nc21 | > 25 | > 25 |  |  | > 25 | > 25 | > 25 | > 25 | > 25 | > 25 | > 25 | > 25 | 15.8 | > 25 | > 25 | > 25 | > 25 | > 25 | 
15 | COc1ccc(C(=O)COc2cccc(/C=C3\CSc4ccc(Cl)cc4C3=O)c2)cc1 | 11.7 | 25.1 |  |  | 19.5 | 47.3 | 11.3 | 28.7 | 15.6 | 29.8 | 14.2 | 35 | 36.5 | > 100 | 3.97 | 20.4 | 3.48 | 17 | 
16 | COc1cc(NCc2ccccc2O)c2ncccc2c1 | 18.1 | 50.3 |  |  | 19.7 | > 100 | 20.6 | 67.4 | 29.8 | > 100 | 22.5 | 97.3 | 13.2 | 60.5 | 10.6 | 90.6 | 11.6 | 37.9 | 
17 | Cc1ccc(NC(=O)C2C(=O)N(c3ccc(C)c(C)c3)C(=O)/C2=N\NC(N)=S)cc1C (configuration not stated) |  | > 100 |  | > 100 |  |  |  | > 100 |  | > 100 |  | > 100 |  |  |  |  |  |  | 
18 | O=C(Nc1cccc(O)c1)c1cccc(NC2=C(Cl)C(=O)N(Cc3ccccc3)C2=O)c1 | 4.63 | 19.3 |  |  | 19.2 | 33.6 | 6.39 | 21.3 | 15.2 | 30.2 | 20.6 | 35.8 | 13.2 | 28.9 | 8.29 | 25 | 2.59 | 11.4 | 
